Source: patent US20250136595A1, “ACYLATED HETEROCYCLIC QUINAZOLINE DERIVATIVES AS INHIBITORS OF ERBB2” (Enliven Inc., priority 2022, published 2025)

Tests used:
[1] = target: T1, phosphorylated ERBB2 (pERBB2) (Homo sapiens, UniProt P04626); test: Detection of phosphorylated ERBB2 (pERBB2) by ELISA in BT-474 cells; assay type: cell-based; conditions: four hour incubation with compound
T1 construct: endogenous in cells; host or cells: BT-474
Outline: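 BT-474 cells treated 4 h at 37 °C, 5% CO2 with four-fold dilutions (10 μM to 0.01 nM final). Lysates analysed by ELISA for pERBB2, TMB read at OD 450 nm. % relative activity normalised to no-cell (low) and 0.1% DMSO-treated (high) controls.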

[2] = target: T2, phosphorylated EGFR (pEGFR) (Homo sapiens, UniProt P00533); test: Detection of phosphorylated EGFR (pEGFR) in EGF-stimulated A431 cells (AlphaLISA); assay type: cell-based; conditions: A431 cells (10% FBS), 4 hours incubation, EGF 30 ng/mL for 10 minutes
T2 construct: performed to measure phosphorylated EGFR levels using A431 cells; endogenous in cells; host or cells: A431
T2 sequence (P00533 25-1210): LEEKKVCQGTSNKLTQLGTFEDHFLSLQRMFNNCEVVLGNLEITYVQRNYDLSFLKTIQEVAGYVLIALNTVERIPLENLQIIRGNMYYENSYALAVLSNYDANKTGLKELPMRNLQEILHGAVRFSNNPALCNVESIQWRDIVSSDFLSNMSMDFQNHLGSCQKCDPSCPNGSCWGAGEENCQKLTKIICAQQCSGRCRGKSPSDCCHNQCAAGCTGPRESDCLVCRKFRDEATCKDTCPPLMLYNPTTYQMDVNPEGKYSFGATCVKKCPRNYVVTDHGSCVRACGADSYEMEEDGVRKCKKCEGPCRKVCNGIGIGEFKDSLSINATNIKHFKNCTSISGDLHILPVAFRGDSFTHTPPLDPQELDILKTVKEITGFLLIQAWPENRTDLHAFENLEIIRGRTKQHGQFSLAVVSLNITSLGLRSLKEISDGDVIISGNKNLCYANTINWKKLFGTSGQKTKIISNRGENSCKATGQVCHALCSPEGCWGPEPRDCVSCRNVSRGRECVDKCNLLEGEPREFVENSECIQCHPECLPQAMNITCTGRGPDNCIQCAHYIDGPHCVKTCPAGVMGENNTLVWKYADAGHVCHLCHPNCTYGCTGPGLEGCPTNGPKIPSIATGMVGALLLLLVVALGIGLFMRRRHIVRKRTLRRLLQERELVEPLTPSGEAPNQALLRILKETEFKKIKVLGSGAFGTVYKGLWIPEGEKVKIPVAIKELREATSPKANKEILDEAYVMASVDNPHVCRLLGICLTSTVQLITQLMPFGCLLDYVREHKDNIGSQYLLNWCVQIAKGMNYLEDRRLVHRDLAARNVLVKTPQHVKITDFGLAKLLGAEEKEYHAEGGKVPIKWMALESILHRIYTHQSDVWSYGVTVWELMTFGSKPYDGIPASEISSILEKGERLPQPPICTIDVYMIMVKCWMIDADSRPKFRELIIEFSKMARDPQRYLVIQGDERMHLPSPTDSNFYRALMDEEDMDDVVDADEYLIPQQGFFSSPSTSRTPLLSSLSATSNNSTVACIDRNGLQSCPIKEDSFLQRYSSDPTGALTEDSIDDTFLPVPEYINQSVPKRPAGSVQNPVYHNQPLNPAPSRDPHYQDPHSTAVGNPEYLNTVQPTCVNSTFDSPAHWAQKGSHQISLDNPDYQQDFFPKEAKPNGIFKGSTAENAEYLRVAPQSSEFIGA
Outline: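 Cells in 10% FBS treated with compound 4 h at 37° C., then stimulated 10 min with 30 ng/mL EGF, lysed, and pEGFR measured by AlphaLISA. Inhibition normalized to DMSO and staurosporine controls; IC50 from four-parameter logistic fit.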

Ba/F3 ERBB2 YVMA = Ba/F3 ERBB2 YVMA (Homo sapiens, UniProt P04626, DUP772-775, cells depend on it); test: Cell viability assay (CellTiter Glo) in Ba/F3 cells engineered to express ERBB2 YVMA; assay type: cell-based, mouse; conditions: Ba/F3 cells expressing human ERBB2 YVMA mutant, 72 hours, % viability, read-out: Ba/F3 ERBB2 YVMA IC50
Ba/F3 ERBB2 YVMA, sequence (P04626 with tags, fused parts or gaps DUP772-775): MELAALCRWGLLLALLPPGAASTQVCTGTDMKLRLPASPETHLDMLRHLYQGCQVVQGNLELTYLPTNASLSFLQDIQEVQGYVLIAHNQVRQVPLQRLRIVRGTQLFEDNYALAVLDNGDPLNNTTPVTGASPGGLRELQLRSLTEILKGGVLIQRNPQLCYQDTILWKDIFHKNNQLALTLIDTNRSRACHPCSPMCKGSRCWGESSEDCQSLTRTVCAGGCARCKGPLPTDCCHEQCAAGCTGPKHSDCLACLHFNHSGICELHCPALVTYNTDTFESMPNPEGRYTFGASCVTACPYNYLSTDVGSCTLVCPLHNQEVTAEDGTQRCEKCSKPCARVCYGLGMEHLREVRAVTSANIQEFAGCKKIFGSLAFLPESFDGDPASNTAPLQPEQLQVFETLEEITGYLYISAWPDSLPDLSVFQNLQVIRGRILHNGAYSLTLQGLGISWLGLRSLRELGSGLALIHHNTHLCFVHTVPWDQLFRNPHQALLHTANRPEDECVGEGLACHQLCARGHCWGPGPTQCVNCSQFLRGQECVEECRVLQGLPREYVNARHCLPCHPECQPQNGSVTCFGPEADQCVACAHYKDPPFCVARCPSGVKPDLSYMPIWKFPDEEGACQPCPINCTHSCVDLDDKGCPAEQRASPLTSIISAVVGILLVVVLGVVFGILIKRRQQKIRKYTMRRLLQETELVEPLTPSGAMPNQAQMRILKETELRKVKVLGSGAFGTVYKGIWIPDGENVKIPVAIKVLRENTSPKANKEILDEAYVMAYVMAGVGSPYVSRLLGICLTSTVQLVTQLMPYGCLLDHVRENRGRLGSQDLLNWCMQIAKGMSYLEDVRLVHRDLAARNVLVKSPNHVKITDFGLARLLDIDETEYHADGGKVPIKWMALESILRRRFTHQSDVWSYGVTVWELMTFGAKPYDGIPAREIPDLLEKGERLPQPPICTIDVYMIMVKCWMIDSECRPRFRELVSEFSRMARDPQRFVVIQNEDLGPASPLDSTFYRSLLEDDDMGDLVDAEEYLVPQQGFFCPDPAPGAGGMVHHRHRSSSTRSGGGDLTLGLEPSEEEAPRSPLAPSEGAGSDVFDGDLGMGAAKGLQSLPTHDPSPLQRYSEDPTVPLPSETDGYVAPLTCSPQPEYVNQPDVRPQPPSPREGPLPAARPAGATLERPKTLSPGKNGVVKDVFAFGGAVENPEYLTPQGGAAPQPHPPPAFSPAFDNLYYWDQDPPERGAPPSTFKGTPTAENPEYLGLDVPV
Outline: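 IL-3-independent mouse Ba/F3 line stably transduced with human ERBB2 YVMA, seeded at 3000 cells/well, exposed to serially diluted compound (≤0.1% DMSO) for 72 h at 37° C. ATP read by CellTiter Glo luminescence, normalised to DMSO and media-only controls; sigmoidal nonlinear regression fit.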

T1 sequence (P04626 23-1255): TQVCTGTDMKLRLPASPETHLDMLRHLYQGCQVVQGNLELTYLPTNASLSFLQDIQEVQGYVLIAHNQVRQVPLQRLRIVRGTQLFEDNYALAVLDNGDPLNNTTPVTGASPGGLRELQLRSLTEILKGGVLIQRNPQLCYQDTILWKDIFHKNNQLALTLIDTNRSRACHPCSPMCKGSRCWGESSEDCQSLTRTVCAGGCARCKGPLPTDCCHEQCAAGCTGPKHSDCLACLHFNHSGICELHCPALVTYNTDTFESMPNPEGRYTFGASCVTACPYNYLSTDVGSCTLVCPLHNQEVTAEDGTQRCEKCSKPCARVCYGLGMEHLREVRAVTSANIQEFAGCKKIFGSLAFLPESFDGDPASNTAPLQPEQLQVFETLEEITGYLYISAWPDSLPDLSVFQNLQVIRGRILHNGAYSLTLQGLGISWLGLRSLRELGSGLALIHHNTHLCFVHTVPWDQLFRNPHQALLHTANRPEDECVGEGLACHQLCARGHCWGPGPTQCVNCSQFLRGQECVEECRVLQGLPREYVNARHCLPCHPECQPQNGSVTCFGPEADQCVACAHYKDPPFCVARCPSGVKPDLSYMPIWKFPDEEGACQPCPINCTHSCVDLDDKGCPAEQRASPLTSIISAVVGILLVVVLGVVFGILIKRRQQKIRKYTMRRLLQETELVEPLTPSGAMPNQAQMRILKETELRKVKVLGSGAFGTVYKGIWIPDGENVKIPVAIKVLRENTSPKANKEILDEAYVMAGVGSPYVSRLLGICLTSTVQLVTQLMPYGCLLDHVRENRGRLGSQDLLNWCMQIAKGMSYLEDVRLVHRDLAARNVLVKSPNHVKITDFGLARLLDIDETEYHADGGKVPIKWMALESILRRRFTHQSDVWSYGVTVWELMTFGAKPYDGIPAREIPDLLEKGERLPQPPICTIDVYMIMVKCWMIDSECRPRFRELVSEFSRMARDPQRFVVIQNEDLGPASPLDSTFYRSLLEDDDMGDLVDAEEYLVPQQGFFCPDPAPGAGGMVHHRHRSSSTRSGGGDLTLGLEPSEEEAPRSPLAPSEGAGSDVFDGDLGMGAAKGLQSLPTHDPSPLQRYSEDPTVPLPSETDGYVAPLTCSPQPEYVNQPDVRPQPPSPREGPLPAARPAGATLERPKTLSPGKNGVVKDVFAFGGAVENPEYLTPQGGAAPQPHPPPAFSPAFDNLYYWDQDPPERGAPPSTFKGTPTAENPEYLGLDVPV

Row | IC50 [1] [µM] | IC50 [2] [µM] | SMILES | GI50 (Ba/F3 ERBB2 YVMA) [µM]
1 | 0.0175 | 2.15 | C=CC(=O)N1C2CCC1CN(c1ccc3ncnc(Nc4ccc(Cc5ccn6ncnc6c5)c(C)c4)c3n1)C2 [Compound 127, 1-(3-(4-((4-([1,2,4]triazolo[1,5-a]pyridin-7-ylmethyl)-3-methylphenyl)amino)pyrido[3,2-d]pyrimidin-6-yl)-3,8-diazabicyclo[3.2.1]octan-8-yl)prop-2-en-1-one] | 0.00437
2 | 0.0237 | 3.78 | C=CC(=O)N1[C@H](C)CN(c2ccc3ncnc(Nc4ccc(Oc5ccn6ncnc6c5)c(C)c4)c3n2)C[C@@H]1C [Compound 60, 1-(cis-4-(4-((4-([1,2,4]triazolo[1,5-a]pyridin-7-yloxy)-3-methylphenyl)amino)pyrido[3,2-d]pyrimidin-6-yl)-2,6-dimethylpiperazin-1-yl)prop-2-en-1-one] | 0.0143
3 | 0.145 | > 10 | Cc1cc(Nc2ncnc3ccc(N4CCN(C(=O)/C=C/CN(C)C)C[C@@H]4C)nc23)ccc1Cc1ccc2c(c1)ncn2C [Compound 126, (S,E)-4-(dimethylamino)-1-(3-methyl-4-(4-((3-methyl-4-((1-methyl-1H-benzo[d]imidazol-5-yl)methyl)phenyl)amino)pyrido[3,2-d]pyrimidin-6-yl)piperazin-1-yl)but-2-en-1-one] | 0.0296
4 | 0.0178 | > 10 | C=CC(=O)N1CC[C@@H](Oc2ccc3ncnc(Nc4ccc(Oc5ccn6ncnc6c5)c(C)c4)c3c2)C1 [Compound 36, (R)-1-(3-((4-((4-([1,2,4]triazolo[1,5-a]pyridin-7-yloxy)-3-methylphenyl)amino)quinazolin-6-yl)oxy)pyrrolidin-1-yl)prop-2-en-1-one] | 0.0987
5 | 0.0219 | 0.329 | C=CC(=O)N1CCN(c2ccc3ncnc(Nc4ccc(Oc5ccc(C)nc5)c(C)c4)c3n2)CC1 [Compound 91, 1-(4-(4-(3-methyl-4-(6-methylpyridin-3-yloxy)phenylamino)pyrido[3,2-d]pyrimidin-6-yl)piperazin-1-yl)prop-2-en-1-one] | 0.0175
6 | 0.099 | > 10 | C=CC(=O)N1CCN(c2ccc3ncnc(Nc4ccc(CN5CCn6ncnc6C5)c(C)c4)c3c2)CC1 [Compound 101, 1-(4-{4-[(3-methyl-4-{5H,6H,8H-[1,2,4]triazolo[1,5-a]pyrazin-7-ylmethyl}phenyl)amino]quinazolin-6-yl}piperazin-1-yl)prop-2-en-1-one] | > 0.5
7 | 0.0115 | 0.107 | C=CC(=O)N1CCN(c2ccc3ncnc(Nc4ccc(Oc5ccn6ncnc6c5)c(C)c4)c3n2)CC12CC2 [Compound 118, 1-(7-{4-[(3-methyl-4-{[1,2,4]triazolo[1,5-a]pyridin-7-yloxy}phenyl)amino]pyrido[3,2-d]pyrimidin-6-yl}-4,7-diazaspiro[2.5]octan-4-yl)prop-2-en-1-one] | 0.00776
8 | 0.0282 | 2.49 | C=CC(=O)N1CCN(c2ccc3ncnc(Nc4ccc(Oc5ccc6c(c5)ncn6C)c(C)c4)c3n2)[C@@H](C)C1 [Compound 67, 1-[(3S)-3-methyl-4-[4-({3-methyl-4-[(1-methyl-1,3-benzodiazol-5-yl)oxy]phenyl}amino)pyrido[3,2-d]pyrimidin-6-yl]piperazin-1-yl]prop-2-en-1-one] | 0.0139
9 | 0.03 | 2.39 | C=CC(=O)N1CCN(c2ccc3ncnc(Nc4ccc(Cc5ccn6ncnc6c5)c(C)c4)c3n2)CC1(C)C [Compound 131, 1-(4-(4-((4-([1,2,4]triazolo[1,5-a]pyridin-7-ylmethyl)-3-methylphenyl)amino)pyrido[3,2-d]pyrimidin-6-yl)-2,2-dimethylpiperazin-1-yl)prop-2-en-1-one] | 0.02
10 | 0.138 | 2.58 | C=CC(=O)N1CCN(c2ccc3ncnc(Nc4ccc(Oc5ccc(CC)nc5)c(C)c4)c3n2)CC1 [Compound 124, 1-(4-(4-((4-((6-ethylpyridin-3-yl)oxy)-3-methylphenyl)amino)pyrido[3,2-d]pyrimidin-6-yl)piperazin-1-yl)prop-2-en-1-one] | 0.0359
11 | 0.0198 | 0.53 | C=CC(=O)N1CC2CC1CN2c1ccc2ncnc(Nc3ccc(Cc4ccn5ncnc5c4)c(C)c3)c2n1 (stereo not drawn) [Compound 128, 1-(5-(4-((4-([1,2,4]triazolo[1,5-a]pyridin-7-ylmethyl)-3-methylphenyl)amino)pyrido[3,2-d]pyrimidin-6-yl)-2,5-diazabicyclo[2.2.1]heptan-2-yl)prop-2-en-1-one] | 0.00745
12 | 0.48 | > 10 | CC#CC(=O)N1CC[C@H](Oc2ccc3ncnc(Nc4ccc(Oc5ccc6c(c5)ncn6C)c(C)c4)c3n2)C1 [Compound 50, 1-[(3S)-3-{[4-({3-methyl-4-[(1-methyl-1,3-benzodiazol-5-yl)oxy]phenyl}amino)pyrido[3,2-d]pyrimidin-6-yl]oxy}pyrrolidin-1-yl]but-2-yn-1-one] | 0.052
13 | 0.022 | 1.02 | CC#CC(=O)N1CCN(c2cc3c(Nc4ccc(Oc5ccc6c(c5)ncn6C)c(C)c4)ncnc3cn2)C[C@H]1C [Compound 71, 1-[(2R)-2-methyl-4-[4-({3-methyl-4-[(1-methyl-1,3-benzodiazol-5-yl)oxy]phenyl}amino)pyrido[3,4-d]pyrimidin-6-yl]piperazin-1-yl]but-2-yn-1-one] | 0.0204
14 | 0.0325 | 0.281 | C=CC(=O)N1CC2CCC(C1)N2c1ccc2ncnc(Nc3ccc(Oc4ccc5c(c4)ncn5C)c(C)c3)c2n1 [Compound 73, 1-{8-[4-({3-methyl-4-[(1-methyl-1,3-benzodiazol-5-yl)oxy]phenyl}amino)pyrido[3,2-d]pyrimidin-6-yl]-3,8-diazabicyclo[3.2.1]octan-3-yl}prop-2-en-1-one] | 0.029
15 | 0.0306 | 8.01 | C=CC(=O)N1CCCN(c2ccc3ncnc(Nc4ccc(Oc5ccn6ncnc6c5)c(C)c4)c3n2)CC1 [Compound 16, 1-(4-{4-[(3-methyl-4-{[1,2,4]triazolo[1,5-a]pyridin-7-yloxy}phenyl)amino]pyrido[3,2-d]pyrimidin-6-yl}-1,4-diazepan-1-yl)prop-2-en-1-one] | 0.0995
16 | 0.0136 | 0.823 | C=CC(=O)N1CCN(c2ccc3ncnc(Nc4ccc(Oc5ccn6ncnc6c5)c(C)c4)c3c2)C[C@H]1C [Compound 35, 1-[(2R)-2-methyl-4-{4-[(3-methyl-4-{[1,2,4]triazolo[1,5-a]pyridin-7-yloxy}phenyl)amino]quinazolin-6-yl}piperazin-1-yl]prop-2-en-1-one] | 0.00788
17 | 0.0198 | 0.629 | C=CC(=O)N1C2CC1CN(c1ccc3ncnc(Nc4ccc(Oc5ccn6ncnc6c5)c(C)c4)c3n1)C2 [Compound 15, 1-(3-{4-[(3-methyl-4-{[1,2,4]triazolo[1,5-a]pyridin-7-yloxy}phenyl)amino]pyrido[3,2-d]pyrimidin-6-yl}-3,6-diazabicyclo[3.1.1]heptan-6-yl)prop-2-en-1-one] | 0.0174
18 | 0.0614 | 2.43 | CC#CC(=O)N1CC2CC1CN2c1ccc2ncnc(Nc3ccc(Oc4ccn5ncnc5c4)c(C)c3)c2n1 (stereo not drawn) [Compound 30, 1-(5-(4-((4-([1,2,4]triazolo[1,5-a]pyridin-7-yloxy)-3-methylphenyl)amino)pyrido[3,2-d]pyrimidin-6-yl)-2,5-diazabicyclo[2.2.1]heptan-2-yl)but-2-yn-1-one] | 0.0212
19 | 0.0219 | 1.79 | Cc1cc(Nc2ncnc3ccc(N4CCN(C(=O)/C=C/CN(C)C)[C@H](C)C4)nc23)ccc1Oc1ccn2ncnc2c1 [Compound 116, (R,E)-1-(4-(4-((4-([1,2,4]triazolo[1,5-a]pyridin-7-yloxy)-3-methylphenyl)amino)pyrido[3,2-d]pyrimidin-6-yl)-2-methylpiperazin-1-yl)-4-(dimethylamino)but-2-en-1-one] | 0.0101
20 | 0.0201 | 0.179 | C=CC(=O)N1CC2CCC(C1)N2c1ccc2ncnc(Nc3ccc(Oc4ccn5ncnc5c4)c(C)c3)c2n1 [Compound 17, 1-(8-{4-[(3-methyl-4-{[1,2,4]triazolo[1,5-a]pyridin-7-yloxy}phenyl)amino]pyrido[3,2-d]pyrimidin-6-yl}-3,8-diazabicyclo[3.2.1]octan-3-yl)prop-2-en-1-one] | 0.00591
21 | 0.0379 | > 10 | C=CC(=O)N1CCC2(CCN(c3ccc4ncnc(Nc5ccc(Oc6ccn7ncnc7c6)c(C)c5)c4n3)C2)C1 (stereo not drawn) [Compound 20, 1-(7-{4-[(3-methyl-4-{[1,2,4]triazolo[1,5-a]pyridin-7-yloxy}phenyl)amino]pyrido[3,2-d]pyrimidin-6-yl}-2,7-diazaspiro[4.4]nonan-2-yl)prop-2-en-1-one] | 0.021
22 | 0.00633 | 0.268 | C=CC(=O)N1CC[C@@H](Nc2ccc3ncnc(Nc4ccc(Oc5ccn6ncnc6c5)c(C)c4)c3n2)C1 [Compound 44, 1-[(3R)-3-({4-[(3-methyl-4-{[1,2,4]triazolo[1,5-a]pyridin-7-yloxy}phenyl)amino]pyrido[3,2-d]pyrimidin-6-yl}amino)pyrrolidin-1-yl]prop-2-en-1-one] | 0.00258
